Measurements published in ChEMBL document CHEMBL3045521, “Synthesis and evaluation of anti-inflammatory, analgesic, ulcerogenicity and nitric oxide-releasing studies of novel ibuprofen analogs as nonulcerogenic derivatives” (Med Chem Res, 2011).
≈ marks a conversion by molar mass, not a printed value.

What was measured:
[1] = Induction of nitric oxide release at 10^-4 M after 1 hr by Griess method relative to control; type: physicochemical; settings: 100 µM
Rattus norvegicus [2] = assay: Anti-inflammatory activity in Rattus norvegicus Wistar albino (rat) assessed as carrageenan-induced paw edema at 49.7 mg/kg, po administered 1 hr prior to carrageenan-challenge measured at 1 hr relative to control; type: functional
Mus musculus [3] = assay: Analgesic activity in Mus musculus (mouse) assessed as inhibition of acetic acid-induced writhing at 37.28 mg/kg, po measured after 5 min for 15 min relative to control; type: functional
Aorta = assay: Vasorelaxant activity in normotensive Rattus norvegicus Wistar albino (rat) aorta assessed as inhibition of norepinephrine-induced contraction; type: functional, tissue-based
Rattus norvegicus [4] = assay: Gastrointestinal toxicity against Rattus norvegicus Wistar albino (rat) assessed as disruption of mucosal layer at 59.64 mg/kg po by HE-staining based […] microscopic analysis; type: organism-based; parameters: dose 59.64 mg/kg, route oral; settings: in vivo
Rattus norvegicus [5] = assay: Anti-inflammatory activity in Rattus norvegicus Wistar albino (rat) assessed as carrageenan-induced paw edema at 49.7 mg/kg, po administered 1 hr prior to carrageenan-challenge measured at 2 hr relative to control; type: functional
Rattus norvegicus [6] = assay: Anti-inflammatory activity in Rattus norvegicus Wistar albino (rat) assessed as carrageenan-induced paw edema at 49.7 mg/kg, po administered 1 hr prior to carrageenan-challenge measured at 3 hr relative to control; type: functional
Rattus norvegicus [7] = assay: Anti-inflammatory activity in Rattus norvegicus Wistar albino (rat) assessed as carrageenan-induced paw edema at 66.69 mg/kg, po administered 1 hr prior to carrageenan-challenge measured at 3 hr relative to control; type: functional
Rattus norvegicus [8] = assay: Anti-inflammatory activity in Rattus norvegicus Wistar albino (rat) assessed as carrageenan-induced paw edema at 66.69 mg/kg, po administered 1 hr prior to carrageenan-challenge measured at 1 hr relative to control; type: functional
Mus musculus [9] = assay: Analgesic activity in Mus musculus (mouse) assessed as inhibition of acetic acid-induced writhing at 49.46 mg/kg, po measured after 5 min for 15 min relative to control; type: functional
Rattus norvegicus [10] = assay: Anti-inflammatory activity in Rattus norvegicus Wistar albino (rat) assessed as carrageenan-induced paw edema at 66.69 mg/kg, po administered 1 hr prior to carrageenan-challenge measured at 2 hr relative to control; type: functional
Rattus norvegicus [11] = assay: Anti-inflammatory activity in Rattus norvegicus Wistar albino (rat) assessed as carrageenan-induced paw edema at 51.06 mg/kg, po administered 1 hr prior to carrageenan-challenge measured at 1 hr relative to control; type: functional
Rattus norvegicus [12] = assay: Gastrointestinal toxicity against Rattus norvegicus Wistar albino (rat) assessed as disruption of mucosal layer at 61.2 mg/kg po by HE-staining based […] microscopic analysis; type: organism-based; parameters: dose 61.2 mg/kg, route oral; settings: in vivo
Rattus norvegicus [13] = assay: Anti-inflammatory activity in Rattus norvegicus Wistar albino (rat) assessed as carrageenan-induced paw edema at 51.06 mg/kg, po administered 1 hr prior to carrageenan-challenge measured at 2 hr relative to control; type: functional
Mus musculus [14] = assay: Analgesic activity in Mus musculus (mouse) assessed as inhibition of acetic acid-induced writhing at 37.87 mg/kg, po measured after 5 min for 15 min relative to control; type: functional
Rattus norvegicus [15] = assay: Anti-inflammatory activity in Rattus norvegicus Wistar albino (rat) assessed as carrageenan-induced paw edema at 51.06 mg/kg, po administered 1 hr prior to carrageenan-challenge measured at 3 hr relative to control; type: functional
Rattus norvegicus [16] = assay: Anti-inflammatory activity in Rattus norvegicus Wistar albino (rat) assessed as carrageenan-induced paw edema at 20 mg/kg, po administered 1 hr prior to carrageenan-challenge measured at 1 hr relative to control; type: functional
Rattus norvegicus [17] = assay: Anti-inflammatory activity in Rattus norvegicus Wistar albino (rat) assessed as carrageenan-induced paw edema at 20 mg/kg, po administered 1 hr prior to carrageenan-challenge measured at 3 hr relative to control; type: functional
Mus musculus [18] = assay: Analgesic activity in Mus musculus (mouse) assessed as inhibition of acetic acid-induced writhing at 15 mg/kg, po measured after 5 min for 15 min relative to control; type: functional
Rattus norvegicus [19] = assay: Anti-inflammatory activity in Rattus norvegicus Wistar albino (rat) assessed as carrageenan-induced paw edema at 20 mg/kg, po administered 1 hr prior to carrageenan-challenge measured at 2 hr relative to control; type: functional
Rattus norvegicus [20] = assay: Gastrointestinal toxicity against Rattus norvegicus Wistar albino (rat) assessed as disruption of mucosal layer at 24 mg/kg po by HE-staining based […] microscopic analysis; type: organism-based; parameters: dose 24 mg/kg, route oral; settings: in vivo
Rattus norvegicus [21] = assay: Anti-inflammatory activity in Rattus norvegicus Wistar albino (rat) assessed as carrageenan-induced paw edema at 63.98 mg/kg, po administered 1 hr prior to carrageenan-challenge measured at 3 hr relative to control; type: functional
Mus musculus [22] = assay: Analgesic activity in Mus musculus (mouse) assessed as inhibition of acetic acid-induced writhing at 47.98 mg/kg, po measured after 5 min for 15 min relative to control; type: functional
Rattus norvegicus [23] = assay: Anti-inflammatory activity in Rattus norvegicus Wistar albino (rat) assessed as carrageenan-induced paw edema at 63.98 mg/kg, po administered 1 hr prior to carrageenan-challenge measured at 2 hr relative to control; type: functional
Rattus norvegicus [24] = assay: Anti-inflammatory activity in Rattus norvegicus Wistar albino (rat) assessed as carrageenan-induced paw edema at 63.98 mg/kg, po administered 1 hr prior to carrageenan-challenge measured at 1 hr relative to control; type: functional
Rattus norvegicus [25] = assay: Anti-inflammatory activity in Rattus norvegicus Wistar albino (rat) assessed as carrageenan-induced paw edema at 48.34 mg/kg, po administered 1 hr prior to carrageenan-challenge measured at 2 hr relative to control; type: functional
Rattus norvegicus [26] = assay: Anti-inflammatory activity in Rattus norvegicus Wistar albino (rat) assessed as carrageenan-induced paw edema at 48.34 mg/kg, po administered 1 hr prior to carrageenan-challenge measured at 3 hr relative to control; type: functional
Mus musculus [27] = assay: Analgesic activity in Mus musculus (mouse) assessed as inhibition of acetic acid-induced writhing at 35.85 mg/kg, po measured after 5 min for 15 min relative to control; type: functional
Rattus norvegicus [28] = assay: Anti-inflammatory activity in Rattus norvegicus Wistar albino (rat) assessed as carrageenan-induced paw edema at 48.34 mg/kg, po administered 1 hr prior to carrageenan-challenge measured at 1 hr relative to control; type: functional
Rattus norvegicus [29] = assay: Gastrointestinal toxicity against Rattus norvegicus Wistar albino (rat) assessed as disruption of mucosal layer at 57.96 mg/kg po by HE-staining based […] microscopic analysis; type: organism-based; parameters: dose 57.96 mg/kg, route oral; settings: in vivo

Q: Which results are given for `CC(C)Cc1ccc(C(C)c2n[nH]c(=S)n2-c2ccccc2CC(=O)NNC(=O)CO[N+](=O)[O-])cc1` (stereo not given)?
A: Activity [1]: 0.35%; inhibition in vivo at 49.7 mg/kg (Rattus norvegicus [2]): 54.5%; inhibition in vivo at 37.28 mg/kg (Mus musculus [3]): 59%; EC50 (Aorta): 55.3 µg/mL (≈ 108 µM); Activity (Rattus norvegicus [4]): Non-toxic; inhibition in vivo at 49.7 mg/kg (Rattus norvegicus [5]): 58.8%; inhibition in vivo at 49.7 mg/kg (Rattus norvegicus [6]): 62.8%

Q: With `CC(C)Cc1ccc(C(C)c2n[nH]c(=S)n2-c2ccc(C(=O)NNC(=O)CCO[N+](=O)[O-])cc2)cc1` (stereo not given) as the compound, how does the Activity [1] read?
A: Its Activity is 0.39%.

Q: And the inhibition in vivo at 49.7 mg/kg (Rattus norvegicus [2])?
A: The inhibition in vivo at 49.7 mg/kg was 52.1%.

Q: And the inhibition in vivo at 37.28 mg/kg (Mus musculus [3])?
A: The inhibition in vivo at 37.28 mg/kg was 64.8%.

Q: What about the EC50 (Aorta) of the same compound?
A: Its EC50 is 30.5 µg/mL (≈ 59.5 µM).

Q: What about the Activity (Rattus norvegicus [4]) of the same compound?
A: Its Activity is “Non-toxic”.

Q: And the inhibition in vivo at 49.7 mg/kg (Rattus norvegicus [5])?
A: The inhibition in vivo at 49.7 mg/kg was 57.1%.

Q: And the inhibition in vivo at 49.7 mg/kg (Rattus norvegicus [6])?
A: Its inhibition in vivo at 49.7 mg/kg is 61.8%.

Q: Which results are given for `CC(C)Cc1ccc(C(C)c2n[nH]c(=S)n2-c2ccc(C(=O)NNC(=O)CCO[N+](=O)[O-])c(C(=O)NNC(=O)CCO[N+](=O)[O-])c2)cc1` (stereo not given)?
A: Activity [1]: 0.57%; inhibition in vivo at 66.69 mg/kg (Rattus norvegicus [7]): 31.9%; inhibition in vivo at 66.69 mg/kg (Rattus norvegicus [8]): 27.9%; EC50 (Aorta): 34.9 µg/mL (≈ 50.7 µM); inhibition in vivo at 49.46 mg/kg (Mus musculus [9]): 48.6%; inhibition in vivo at 66.69 mg/kg (Rattus norvegicus [10]): 29.9%

Q: Which Activity [1] does the source give for `CC(C)Cc1ccc(C(C)c2n[nH]c(=S)n2-c2ccccc2CC(=O)NNC(=O)CCO[N+](=O)[O-])cc1` (stereo not given) here?
A: Its Activity is 0.32%.

Q: What about the EC50 (Aorta) of the same compound?
A: Its EC50 is 58.6 µg/mL (≈ 111 µM).

Q: And the inhibition in vivo at 51.06 mg/kg (Rattus norvegicus [11])?
A: Its inhibition in vivo at 51.06 mg/kg is 51.5%.

Q: And the Activity (Rattus norvegicus [12])?
A: Its Activity is “Non-toxic”.

Q: What about the inhibition in vivo at 51.06 mg/kg (Rattus norvegicus [13]) of the same compound?
A: Its inhibition in vivo at 51.06 mg/kg is 56.5%.

Q: And the inhibition in vivo at 37.87 mg/kg (Mus musculus [14])?
A: The inhibition in vivo at 37.87 mg/kg was 56.1%.

Q: What about the inhibition in vivo at 51.06 mg/kg (Rattus norvegicus [15]) of the same compound?
A: The inhibition in vivo at 51.06 mg/kg was 61.8%.

Q: With `CC(C)Cc1ccc(C(C)C(=O)O)cc1` (stereo not given) [IBUPROFEN] as the compound, how does the inhibition in vivo at 20 mg/kg (Rattus norvegicus [16]) read?
A: The inhibition in vivo at 20 mg/kg was 53.9%.

Q: And the inhibition in vivo at 20 mg/kg (Rattus norvegicus [17])?
A: Its inhibition in vivo at 20 mg/kg is 62.8%.

Q: What about the inhibition in vivo at 15 mg/kg (Mus musculus [18]) of the same compound?
A: Its inhibition in vivo at 15 mg/kg is 62.4%.

Q: What about the inhibition in vivo at 20 mg/kg (Rattus norvegicus [19]) of the same compound?
A: Its inhibition in vivo at 20 mg/kg is 58.2%.

Q: With `O=C(O)Cc1ccccc1Nc1c(Cl)cccc1Cl` [DICLOFENAC] as the compound, how does the Activity (Rattus norvegicus [20]) read?
A: The Activity was “Toxic”.

Q: Which results are given for `CC(C)Cc1ccc(C(C)c2n[nH]c(=S)n2-c2ccc(C(=O)NNC(=O)CO[N+](=O)[O-])c(C(=O)NNC(=O)CO[N+](=O)[O-])c2)cc1` (stereo not given)?
A: Activity [1]: 0.42%; EC50 (Aorta): 38.7 µg/mL (≈ 58.6 µM); inhibition in vivo at 63.98 mg/kg (Rattus norvegicus [21]): 41.9%; inhibition in vivo at 47.98 mg/kg (Mus musculus [22]): 52.6%; inhibition in vivo at 63.98 mg/kg (Rattus norvegicus [23]): 40.1%; inhibition in vivo at 63.98 mg/kg (Rattus norvegicus [24]): 38.8%

Q: With `CC(C)Cc1ccc(C(C)c2n[nH]c(=S)n2-c2ccc(C(=O)NNC(=O)CO[N+](=O)[O-])cc2)cc1` (stereo not given) as the compound, how does the Activity [1] read?
A: Its Activity is 0.48%.

Q: And the inhibition in vivo at 48.34 mg/kg (Rattus norvegicus [25])?
A: Its inhibition in vivo at 48.34 mg/kg is 56.5%.

Q: What about the inhibition in vivo at 48.34 mg/kg (Rattus norvegicus [26]) of the same compound?
A: The inhibition in vivo at 48.34 mg/kg was 61.2%.

Q: And the EC50 (Aorta)?
A: The EC50 was 42.8 µg/mL (≈ 85.8 µM).

Q: And the inhibition in vivo at 35.85 mg/kg (Mus musculus [27])?
A: The inhibition in vivo at 35.85 mg/kg was 63.6%.

Q: And the inhibition in vivo at 48.34 mg/kg (Rattus norvegicus [28])?
A: The inhibition in vivo at 48.34 mg/kg was 52.7%.

Q: And the Activity (Rattus norvegicus [29])?
A: The Activity was “Non-toxic”.
